Measurements published in ChEMBL document CHEMBL2406942, “Design, synthesis and neuroprotective evaluation of novel tacrine-benzothiazole hybrids as multi-targeted compounds against Alzheimer's disease” (Bioorg Med Chem, 2013).
Activity calls are given as the source filed them. The calls are words filed in the database; no cut-off is given here.

Assays:
[1] = system: Radical scavenging activity; test: Antioxidant activity assessed as DPPH free radical scavenging activity at 1 mM after 30 mins by spectrophotometric analysis relative to control; assay type: functional
[2] = biological target: Amyloid-beta precursor protein (Homo sapiens) (UniProt P05067); test: Neuroprotective activity against amyloid beta (1 to 42)-induced toxicity in normal cognition human platelet-SH-SY5Y cell cybrid at 2.5 uM preincubated for 3 hrs by MTT assay; assay type: functional, cell-based
[3] = system: Radical scavenging activity; test: Antioxidant activity assessed as DPPH free radical scavenging activity at 1.32 mM after 30 mins by spectrophotometric analysis relative to control; assay type: functional
[4] = biological target: Acetylcholinesterase (Electrophorus electricus, UniProt O42275)
Description: Inhibition of electric eel AChE using acetylcholine iodide as substrate preincubated for 15 mins prior to substrate addition by Ellman's method

[5] = system: Radical scavenging activity
Description: Antioxidant activity assessed as DPPH free radical scavenging activity after 30 mins by spectrophotometric analysis

[6] = biological target: Amyloid-beta precursor protein (Homo sapiens) (UniProt P05067); test: Neuroprotective activity against amyloid beta (1 to 42)-induced toxicity in human SH-SY5Y cells at 2.5 uM preincubated for 3 hrs by MTT assay; assay type: functional, cell-based
[7] = biological target: Amyloid-beta precursor protein (Homo sapiens) (UniProt P05067); test: Neuroprotective activity against amyloid beta (1 to 42)-induced toxicity in mild cognitive impairment patient platelet-SH-SY5Y cell cybrid at 2.5 uM preincubated for 3 hrs by MTT assay; assay type: functional, cell-based
[8] = biological target: Amyloid-beta precursor protein (Homo sapiens) (UniProt P05067); test: Neuroprotective activity against amyloid beta (1 to 42)-induced toxicity in Alzheimer's disease patient platelet-SH-SY5Y cell cybrid at 2.5 uM preincubated for 3 hrs by MTT assay; assay type: functional, cell-based
[9] = system: Radical scavenging activity; test: Antioxidant activity assessed as DPPH free radical scavenging activity at 1.22 mM after 30 mins by spectrophotometric analysis relative to control; assay type: functional

Sequence of Acetylcholinesterase (O42275 whole entry): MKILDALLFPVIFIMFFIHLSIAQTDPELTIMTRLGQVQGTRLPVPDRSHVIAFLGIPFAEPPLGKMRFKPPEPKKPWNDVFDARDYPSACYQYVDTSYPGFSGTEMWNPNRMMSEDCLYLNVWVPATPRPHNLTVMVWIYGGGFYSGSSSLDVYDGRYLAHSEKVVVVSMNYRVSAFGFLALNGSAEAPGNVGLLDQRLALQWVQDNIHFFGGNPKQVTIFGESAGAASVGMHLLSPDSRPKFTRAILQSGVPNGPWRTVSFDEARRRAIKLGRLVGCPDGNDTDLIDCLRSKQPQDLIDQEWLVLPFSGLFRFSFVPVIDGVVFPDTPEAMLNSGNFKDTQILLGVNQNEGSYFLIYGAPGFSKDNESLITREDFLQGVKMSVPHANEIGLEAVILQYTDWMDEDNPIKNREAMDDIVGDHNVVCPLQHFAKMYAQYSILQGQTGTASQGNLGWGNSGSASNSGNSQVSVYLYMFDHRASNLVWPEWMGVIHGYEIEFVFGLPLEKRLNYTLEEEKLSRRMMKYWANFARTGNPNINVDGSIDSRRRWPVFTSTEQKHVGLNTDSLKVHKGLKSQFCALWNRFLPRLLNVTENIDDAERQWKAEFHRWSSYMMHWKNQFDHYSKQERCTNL
Sequence of Amyloid-beta precursor protein (Homo sapiens) (P05067 whole entry): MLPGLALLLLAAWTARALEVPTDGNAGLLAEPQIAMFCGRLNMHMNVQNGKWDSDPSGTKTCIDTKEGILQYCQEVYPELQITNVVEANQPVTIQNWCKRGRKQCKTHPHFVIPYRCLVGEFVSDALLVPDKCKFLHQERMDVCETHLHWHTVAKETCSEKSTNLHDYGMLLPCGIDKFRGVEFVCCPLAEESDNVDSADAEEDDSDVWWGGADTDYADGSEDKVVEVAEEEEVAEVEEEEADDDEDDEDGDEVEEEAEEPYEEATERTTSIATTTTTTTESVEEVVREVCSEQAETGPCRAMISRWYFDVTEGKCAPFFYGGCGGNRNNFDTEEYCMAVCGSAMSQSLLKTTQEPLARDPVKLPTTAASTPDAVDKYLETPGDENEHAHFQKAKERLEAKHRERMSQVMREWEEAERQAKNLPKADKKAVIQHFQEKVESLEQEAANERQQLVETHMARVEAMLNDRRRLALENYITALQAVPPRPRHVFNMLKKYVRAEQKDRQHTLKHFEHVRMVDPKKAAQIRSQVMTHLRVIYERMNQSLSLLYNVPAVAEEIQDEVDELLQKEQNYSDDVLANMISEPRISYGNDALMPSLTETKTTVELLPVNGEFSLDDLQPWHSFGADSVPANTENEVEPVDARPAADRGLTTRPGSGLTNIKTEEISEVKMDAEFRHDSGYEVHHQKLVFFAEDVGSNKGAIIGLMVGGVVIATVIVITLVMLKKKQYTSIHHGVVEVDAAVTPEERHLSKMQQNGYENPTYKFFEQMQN

| SMILES | Activity [1] [%] | Activity [2] | Activity [3] [%] | IC50 [4] [µM] | EC50 [5] [µM] | Activity [6] | Activity [7] | Activity [8] | Activity [9] [%] |
| --- | --- | --- | --- | --- | --- | --- | --- | --- | --- |
| O=C(CCCCCNc1c2c(nc3ccccc13)CCCC2)Nc1ccc(-c2nc3ccccc3s2)cc1 | 25 | Active | 32 | 0.34 | – | – | – | – | – |
| O=C(CCCCCNc1c2c(nc3ccccc13)CCCC2)NCCCCCc1nc2ccccc2s1 | 25 | – | – | 0.76 | > 1000 | Active | Active | Active | – |
| O=C(CCCCCNc1c2c(nc3ccccc13)CCCC2)Nc1ccc(Cc2nc3ccccc3s2)cc1 | 25 | – | – | 0.57 | > 1000 | – | – | – | – |
| O=C(CCCCCNc1c2c(nc3ccccc13)CCCC2)NCCCc1nc2ccccc2s1 | 25 | – | – | 0.96 | – | Active | Active | Active | 25 |
| O=C(CCCCCNc1c2c(nc3ccccc13)CCCC2)NCc1ccc(-c2nc3ccccc3s2)cc1 | 25 | – | – | 1.84 | > 1000 | – | – | – | – |
